US12264158B2, “Protein kinase MKK4 inhibitors for promoting liver regeneration or reducing or preventing hepatocyte death” (HEPAREGENIX GMBH, priority 2018, dated 2025)
pIC50: −log10 of the molar value.

Assays:
MEKK2 = molecular target: T1, MEKK2 (Homo sapiens, UniProt Q9Y2U5); test: Radiometric protein kinase assay, MEKK2; format: biochemical; settings: substrate Casein, ATP 0.2 μM; read-out: MEKK2, potency derived from IC50-values
T1 construct: purchased ProQinase #0583-0000-1
T1 sequence (Q9Y2U5 1-619): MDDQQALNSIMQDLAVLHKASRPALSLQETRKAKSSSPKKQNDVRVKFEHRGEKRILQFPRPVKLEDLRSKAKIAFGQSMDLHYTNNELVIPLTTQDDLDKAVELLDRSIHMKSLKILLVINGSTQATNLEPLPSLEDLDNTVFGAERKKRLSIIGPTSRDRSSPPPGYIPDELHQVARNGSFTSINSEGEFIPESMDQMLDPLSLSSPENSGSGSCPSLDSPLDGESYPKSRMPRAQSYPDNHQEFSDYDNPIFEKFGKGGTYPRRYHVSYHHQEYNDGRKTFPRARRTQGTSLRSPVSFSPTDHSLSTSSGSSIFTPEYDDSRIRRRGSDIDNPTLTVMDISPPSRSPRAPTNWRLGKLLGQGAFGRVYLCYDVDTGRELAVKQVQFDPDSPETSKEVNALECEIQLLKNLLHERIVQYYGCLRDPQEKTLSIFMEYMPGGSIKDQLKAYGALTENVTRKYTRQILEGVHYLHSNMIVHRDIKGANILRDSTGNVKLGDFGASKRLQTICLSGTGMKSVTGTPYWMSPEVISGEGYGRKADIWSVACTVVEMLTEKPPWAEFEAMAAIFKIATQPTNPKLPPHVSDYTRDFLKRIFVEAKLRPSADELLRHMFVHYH
Protocol: A radiometric protein kinase assay was used for measuring the kinase activity of the respective protein kinases. All kinase assays were performed in 96-well polypropylene plates. After the reactions were stopped, the assay mixtures were transferred to 96-well MSFC filter-plates (Millipore). The reaction mix was passed through the filter membrane by aspiration, the membrane was washed 3 times with 150 mM H3PO4, once with ethanol, dried and liquid scintillation cocktail was added. Radioactivity was determined by counting of the samples in a Microbeta multiwell scintillation counter (Wallac).

MKK4 = molecular target: T2, MKK4 (Homo sapiens, UniProt P45985); test: KINOMEscan competition binding assay, MKK4 potency; settings: concentration of 100 nM
T2 construct: S84/D399; host or cells: HEK-293
T2 sequence (P45985 84-399): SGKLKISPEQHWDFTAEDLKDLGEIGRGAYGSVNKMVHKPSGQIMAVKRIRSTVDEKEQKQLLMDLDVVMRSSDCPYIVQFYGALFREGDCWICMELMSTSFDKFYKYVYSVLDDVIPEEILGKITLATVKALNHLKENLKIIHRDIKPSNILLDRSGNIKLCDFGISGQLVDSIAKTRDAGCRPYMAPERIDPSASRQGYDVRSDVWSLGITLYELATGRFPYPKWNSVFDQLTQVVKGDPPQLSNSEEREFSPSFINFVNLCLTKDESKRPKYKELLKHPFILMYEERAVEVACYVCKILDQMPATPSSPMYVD
Protocol: (§1) The assay was performed by combining three components: DNA-tagged kinase; immobilized ligand; and a test compound. The ability of the test compound to compete with the immobilized ligand was measured via quantitative PCR of the DNA tag. The technology is described in detail in Fabian, M. A. et al. A small molecule-kinase interaction map for clinical kinase inhibitors. Nat. […] M. W. et al. A quantitative analysis of kinase inhibitor selectivity, Nat.
(§2) For investigation of the affinity to MKK4, MKK7 and JNK1, the kinases were produced in HEK-293 cells and subsequently tagged with DNA for qPCR detection. […] The liganded beads were blocked with excess biotin and washed with blocking buffer (SEABLOCK™ (Pierce), 1% BSA, 0.05% TWEEN®20, 1 mM DTT) to remove unbound ligand and to reduce nonspecific binding. […] All reactions were performed in polystyrene 96-well plates in a final volume of 0.135 mL. […] The kinase concentration in the eluates was measured by qPCR.
(§3) The test compounds were provided as 10 mM stock solutions. The test solutions at indicated final concentrations were prepared at DiscoverX.

MKK7 = molecular target: T3, MKK7 (Homo sapiens, UniProt O14733); test: KINOMEscan competition binding assay, selectivity against off-target MKK7; settings: concentration of 100 nM
T3 construct: M1/R419; host or cells: HEK-293
T3 sequence (O14733 1-419): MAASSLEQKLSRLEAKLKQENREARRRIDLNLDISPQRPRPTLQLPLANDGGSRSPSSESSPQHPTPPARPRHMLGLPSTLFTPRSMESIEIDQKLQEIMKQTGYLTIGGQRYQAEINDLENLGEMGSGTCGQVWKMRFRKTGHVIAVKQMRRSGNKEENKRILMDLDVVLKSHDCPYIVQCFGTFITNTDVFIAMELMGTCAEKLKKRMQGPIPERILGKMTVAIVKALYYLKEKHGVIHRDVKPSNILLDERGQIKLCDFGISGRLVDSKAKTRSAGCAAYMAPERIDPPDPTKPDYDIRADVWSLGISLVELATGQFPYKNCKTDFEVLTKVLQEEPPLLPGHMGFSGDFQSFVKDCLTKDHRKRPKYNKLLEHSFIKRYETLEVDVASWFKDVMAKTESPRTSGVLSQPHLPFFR
Protocol: as §1, §2, §3

JNK1 = molecular target: T4, JNK1 (Homo sapiens, UniProt P45983); test: KINOMEscan competition binding assay, selectivity against off-target JNK1; settings: concentration of 100 nM
T4 construct: M1/Q384; host or cells: HEK-293
Protocol: as §1, §2, §3

BRaf = BRaf (Homo sapiens, UniProt P15056); test: KINOMEscan competition binding assay, selectivity against off-target BRaf; settings: concentration of 100 nM
Protocol: as §1, §3

Sequence of BRaf (P15056 whole entry): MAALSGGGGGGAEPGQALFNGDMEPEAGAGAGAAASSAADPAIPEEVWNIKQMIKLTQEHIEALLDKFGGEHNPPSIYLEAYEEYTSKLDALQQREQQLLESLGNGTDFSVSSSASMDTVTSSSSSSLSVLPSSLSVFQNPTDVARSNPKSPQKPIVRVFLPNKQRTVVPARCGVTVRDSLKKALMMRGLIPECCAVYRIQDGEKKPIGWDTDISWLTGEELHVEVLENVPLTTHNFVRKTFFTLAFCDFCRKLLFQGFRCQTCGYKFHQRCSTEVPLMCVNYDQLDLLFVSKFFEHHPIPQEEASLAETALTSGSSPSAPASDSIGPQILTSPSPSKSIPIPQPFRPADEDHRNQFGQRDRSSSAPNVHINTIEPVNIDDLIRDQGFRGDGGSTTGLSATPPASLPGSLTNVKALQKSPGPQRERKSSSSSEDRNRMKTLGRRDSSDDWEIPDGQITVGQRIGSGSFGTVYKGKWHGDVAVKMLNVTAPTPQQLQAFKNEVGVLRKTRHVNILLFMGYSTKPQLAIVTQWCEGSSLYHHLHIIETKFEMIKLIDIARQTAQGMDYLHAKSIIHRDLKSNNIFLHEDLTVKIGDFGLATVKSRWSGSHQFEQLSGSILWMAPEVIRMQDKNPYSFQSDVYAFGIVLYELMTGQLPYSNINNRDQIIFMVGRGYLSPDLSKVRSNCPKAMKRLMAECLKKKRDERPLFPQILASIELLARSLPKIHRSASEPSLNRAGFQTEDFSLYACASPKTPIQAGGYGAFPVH
T4 sequence (P45983 1-384 isoform P45983-2): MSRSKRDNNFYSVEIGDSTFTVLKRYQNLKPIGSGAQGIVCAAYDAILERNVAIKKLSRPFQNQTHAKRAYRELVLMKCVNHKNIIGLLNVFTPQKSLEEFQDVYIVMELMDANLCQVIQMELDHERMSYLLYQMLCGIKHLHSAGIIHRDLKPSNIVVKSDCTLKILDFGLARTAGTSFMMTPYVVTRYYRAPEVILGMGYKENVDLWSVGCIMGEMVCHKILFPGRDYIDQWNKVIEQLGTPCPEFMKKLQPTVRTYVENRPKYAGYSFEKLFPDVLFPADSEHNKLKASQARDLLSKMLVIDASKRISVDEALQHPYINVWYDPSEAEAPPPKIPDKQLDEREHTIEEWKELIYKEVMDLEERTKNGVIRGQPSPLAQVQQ

| pIC50 (MEKK2) | MKK4, residual percent of control binding (PoC) (MKK4) | Selectivity vs. MKK7, ratio PoC(MKK7)/PoC(MKK4) (MKK7) | Selectivity vs. JNK1, ratio PoC(JNK1)/PoC(MKK4) (JNK1) | Selectivity vs. BRaf, ratio PoC(BRaf)/PoC(MKK4) (BRaf) | Structure (SMILES) |
| --- | --- | --- | --- | --- | --- |
| < 5.00 |  |  |  |  | CCCS(=O)(=O)Nc1ccc(F)c(C(=O)c2n[nH]c3ncc(-c4ccc(F)cc4C)cc23)c1F [Example 4, N-(2,4-difluoro-3-(5-(4-fluoro-2-methylphenyl)-1H-pyrazo-lo[3,4-b]-pyri-dine-3-car-bonyl)-phenyl)-propane-1-sulfonamide] |
| < 5.00 |  |  |  |  | CCCS(=O)(=O)Nc1ccc(F)c(C(=O)c2n[nH]c3ncc(-c4ccc(OC)cc4Cl)cc23)c1F [Example 5, N-(3-(5-(2-chloro-4-methoxy-phenyl)-1H-pyrazolo[3,4-b]-pyridine-3-carbonyl)-2,4-difluorophenyl)propane-1-sulfonamide] |
|  | + (10 ≤ PoC < 30) | + (10 > PoC(MKK7)/PoC(MKK4) ≥ 3) | + (10 > PoC(JNK1)/PoC(MKK4) ≥ 3) | O (PoC(BRaf)/PoC(MKK4) < 3) | CCCS(=O)(=O)Nc1ccc(F)c(C(=O)c2n[nH]c3ncc(-c4ccc(Cl)c(C(F)(F)F)c4)cc23)c1F [Example 36, N-(3-(5-(4-chloro-3-(trifluoromethyl)phenyl)-1H-pyrazolo[3,4-13]-pyridine-3-carbonyl)-2,4-difluorophenyl)-propane-1-sulfonamide] |
| < 5.00 |  |  |  |  | Cc1cc(F)ccc1-c1cnc2[nH]nc(C(=O)c3cccc(NS(C)(=O)=O)c3F)c2c1 [Example 39, N-(2-fluoro-3-(5-(4-fluoro-2-methylphenyl)-1H-pyrazo-lo[3,4-b]pyridine-3-carbonyl)-phenyl)methanesulfonamide] |
| < 5.00 |  |  |  |  | CCCCS(=O)(=O)Nc1cccc(C(=O)c2n[nH]c3ncc(-c4ccc(F)cc4C)cc23)c1F [Example 42, N-(2-fluoro-3-(5-(4-fluoro-2-methylphenyl)-1H-pyrazo-lo[3,4-b]pyridine-3-carbonyl)-phenyl)butane-1-sulfonamide] |
|  | O (PoC ≥ 30) | O (PoC(MKK7)/PoC(MKK4) < 3) | O (PoC(JNK1)/PoC(MKK4) < 3) | O (PoC(BRaf)/PoC(MKK4) < 3) | CCCS(=O)(=O)Nc1ccc(F)c(NC(=O)c2n[nH]c3ncc(-c4ccc(Cl)cc4)cc23)c1F [Example 45, 5-(4-chlorophenyl)-N-(2,6-difluoro-3-(propylsulfonamido)phenyl)-1H-pyrazolo[3,4-b]pyridine-3-carboxamide] |
| 5.00 to 6.00 |  |  |  |  | CCCCS(=O)(=O)Nc1ccc(F)c(C(=O)c2n[nH]c3ncc(-c4ccc(S(N)(=O)=O)cc4)cc23)c1F [Example 51c, 4-(3-(3-(butylsulfonamido)-2,6-difluorobenzoyl)-1H-pyrazolo[3,4-b]pyridin-5-yl) benzenesulfonamide] |
| 5.00 to 6.00 |  |  |  |  | CCCS(=O)(=O)Nc1ccc(F)c(C(=O)c2n[nH]c3ncc(-c4ccc(NS(C)(=O)=O)cc4)cc23)c1F [Example 51g, N-(2,4-difluoro-3-(5-(4-(methylsulfonamido)phenyl)-1H-pyrazolo[3,4-b]pyridine-3-carbonyl)phenyl)propane-1-sulfonamide] |

More lines, now with the values behind:

| Structure (SMILES) | pIC50 (MEKK2) | MKK4, residual percent of control binding (PoC) (MKK4) | Selectivity vs. MKK7, ratio PoC(MKK7)/PoC(MKK4) (MKK7) | Selectivity vs. JNK1, ratio PoC(JNK1)/PoC(MKK4) (JNK1) | Selectivity vs. BRaf, ratio PoC(BRaf)/PoC(MKK4) (BRaf) |
| --- | --- | --- | --- | --- | --- |
| CS(=O)(=O)Nc1cccc(C(=O)c2n[nH]c3ncc(-c4ccc5c(c4)OCCO5)cc23)c1F [Example 40, N-(3-(5-(2,3-dihydro-benzo-[b][1,4]dioxin-6-yl)-1H-pyrazolo[3,4-b]pyridine-3-carbonyl)-2-fluoro-phenyl)-methanesulfonamide] | < 5.00 |  |  |  |  |
| CCCCS(=O)(=O)Nc1cccc(C(=O)c2n[nH]c3ncc(-c4ccc(OC)cc4Cl)cc23)c1F [Example 41, N-(3-(5-(2-chloro-4-methoxy-phenyl)-1H-pyrazolo[3,4-b]pyridine-3-carbonyl)-2-fluorophenyl)-butane-1-sulfonamide] | < 5.00 |  |  |  |  |
| CCCCS(=O)(=O)Nc1cccc(C(=O)c2n[nH]c3ncc(-c4ccc5c(c4)OCCO5)cc23)c1F [Example 43, N-(3-(5-(2,3-dihydro-benzo-[b][1,4]dioxin-6-yl)-1H-pyrazolo[3,4-b]-pyridine-3-carbonyl)-2-fluorophenyl)-butane-1-sulfonamide] |  | + (10 ≤ PoC < 30) | + (10 > PoC(MKK7)/PoC(MKK4) ≥ 3) | + (10 > PoC(JNK1)/PoC(MKK4) ≥ 3) | + (10 > PoC(BRaf)/PoC(MKK4) ≥ 3) |
| CCCS(=O)(=O)Nc1ccc(F)c(Sc2n[nH]c3ncc(-c4ccc(Cl)cc4)cc23)c1F [Example 46, N-(3-((5-(4-chlorophenyl)-1H-pyrazolo[3,4-b]pyridin-3-yl)thio)-2,4-difluorophenyl)propane-1-sulfonamide] |  | O (PoC ≥ 30) | O (PoC(MKK7)/PoC(MKK4) < 3) | O (PoC(JNK1)/PoC(MKK4) < 3) | O (PoC(BRaf)/PoC(MKK4) < 3) |
| CCCS(=O)(=O)Nc1ccc(F)c([S+]([O-])c2n[nH]c3ncc(-c4ccc(Cl)cc4)cc23)c1F (stereo not shown) [Example 47, N-(3-((5-(4-chlorophenyl)-1H-pyrazolo[3,4-b]pyridin-3-yl)sulfinyl)-2,4-difluorophenyl)propane-1-sulfonamide] |  | O (PoC ≥ 30) | O (PoC(MKK7)/PoC(MKK4) < 3) | O (PoC(JNK1)/PoC(MKK4) < 3) | O (PoC(BRaf)/PoC(MKK4) < 3) |
| CCCS(=O)(=O)Nc1ccc(F)c(S(=O)(=O)c2n[nH]c3ncc(-c4ccc(Cl)cc4)cc23)c1F [Example 48, N-(3-((5-(4-chlorophenyl)-1H-pyrazolo[3,4-b]pyridin-3-yl)sulfonyl)-2,4-difluorophenyl)propane-1-sulfonamide] |  | O (PoC ≥ 30) | O (PoC(MKK7)/PoC(MKK4) < 3) | O (PoC(JNK1)/PoC(MKK4) < 3) | O (PoC(BRaf)/PoC(MKK4) < 3) |
| CCCS(=O)(=O)Nc1ccc(F)c(Cc2n[nH]c3ncc(-c4ccc(Cl)cc4)cc23)c1F [Example 50, N-(3-((5-(4-chlorophenyl)-1H-pyrazolo[3,4-b]pyridin-3-yl)methyl)-2,4-difluorophenyl)propane-1-sulfonamide] |  | O (PoC ≥ 30) | O (PoC(MKK7)/PoC(MKK4) < 3) | O (PoC(JNK1)/PoC(MKK4) < 3) | O (PoC(BRaf)/PoC(MKK4) < 3) |
| CS(=O)(=O)Nc1ccc(F)c(C(=O)c2n[nH]c3ncc(-c4ccc(S(N)(=O)=O)cc4)cc23)c1F [Example 51b, 4-(3-(2,6-difluoro-3-(methylsulfonamido)benzoyl)-1H-pyrazolo[3,4-b]pyridin-5-yl) benzenesulfonamide] | 5.00 to 6.00 |  |  |  |  |
